# Test system: human keratinocytes (HaCaT)
# Test: Scratch wound healing (skin regeneration) test, time-lapse microscopy
# Type: cell-based
# Details: after 48 hours, scratched HaCaT
# Procedure: First, human keratinocytes (HaCaT) purchased from CLS (Cat No. 300493) were seeded onto a 24-well cell culture plate at a concentration of 2.0×10^5 cells/600 μL, in DMEM (Lonza, #12-604F) containing 10% fetal bovine serum (GIBCO, #16000-044) and antibiotics (Lonza, #17-602E). After culturing in a 5% CO2 incubator at 37° C. for 24 hours and replacing the medium with DMEM containing 1% fetal bovine serum, the cells were cultured further for 16 hours. After the cells were filled on the culture plate, the cells were damaged by applying a linear scratch using a scratcher (SPL, #SPL201925) and then washed twice. Core-shell network solutions comprising 0.005 wt %, 0.25 wt %, 0.5 wt % or 1 wt % of the core-shell network structure based on the total weight of the solution, were prepared in the same manner as in Example 3 (Examples 4-7). […]
# The negative control group, the positive control group and the groups treated with the core-shell network structure at different concentrations were placed on a time-lapse microscope (JuLI™ Stage, NanoEnT) stage in a CO2 incubator and each well was imaged for 48 hours with 1-hour intervals. Then, wound healing area (%) was determined from the acquired images using a software analysis tool (Wound Healing tool).
substance,measurement,setting,value
madecassoside,wound healing area as compared to the negative control group,,1.37 times
same,wound healing area,negative control 30.06%,41.25%
